Test results taken from patent US9464064B2, “HCV helicase inhibitors and methods of use thereof” (University of Kansas, priority 2011, dated 2016).
Starred links: 1 amine or outer side, 2 acyl side, 3 side chain; linkers in the order of their positions; H or OH if unused. Positions of bridges follow the written chain, without caps; N, C: chain ends. Non-standard residues stand in square brackets, D forms with d. Residues, ends and D or L forms follow the SMILES beside them. Chains are numbered I, II in the order given. Actinocin(1to9) = Cc1c2oc3c(C)ccc(C(=O)[*:2])c3nc-2c(C(=O)[*:1])c(N)c1=O; NMeV = CN[C@H](C(=O)O)C(C)C; Sar = CNCC(=O)O

Biological target: T1, HCV NS3 helicase NS3h_1b(con1) (Hepatitis C virus genotype 1b, UniProt Q9WMX2)
T1 construct: truncated C-terminally His-tagged NS3 proteins lacking the N-terminal protease, called NS3h; His-tag (C); made in house
Test: MBHA screen of NCI mechanistic set library at 20 μM (percent inhibition, compound interference)
Format: biochemical
Settings: compounds at 20 μM; for Inh. (%) (Inhibition): calculated from Equation 1
Method in brief: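 Molecular beacon-based DNA unwinding assay; compounds screened at 20 μM in triplicate, with DMSO-only negative and 500 nM dT20 positive controls. Fluorescence (ex 643/em 670 nm) was read before and 30 min after adding ATP to 1 mM. Percent inhibition came from the change relative to DMSO controls; interference from pre-ATP fluorescence versus DMSO controls.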

[1] = MBHA with DNA substrate, assay interference calculated with Equation 2
[2] = assay interference calculated with Equation 2 (fluorescence vs DMSO-only controls before ATP)

T1 sequence (Q9WMX2 1192-1657): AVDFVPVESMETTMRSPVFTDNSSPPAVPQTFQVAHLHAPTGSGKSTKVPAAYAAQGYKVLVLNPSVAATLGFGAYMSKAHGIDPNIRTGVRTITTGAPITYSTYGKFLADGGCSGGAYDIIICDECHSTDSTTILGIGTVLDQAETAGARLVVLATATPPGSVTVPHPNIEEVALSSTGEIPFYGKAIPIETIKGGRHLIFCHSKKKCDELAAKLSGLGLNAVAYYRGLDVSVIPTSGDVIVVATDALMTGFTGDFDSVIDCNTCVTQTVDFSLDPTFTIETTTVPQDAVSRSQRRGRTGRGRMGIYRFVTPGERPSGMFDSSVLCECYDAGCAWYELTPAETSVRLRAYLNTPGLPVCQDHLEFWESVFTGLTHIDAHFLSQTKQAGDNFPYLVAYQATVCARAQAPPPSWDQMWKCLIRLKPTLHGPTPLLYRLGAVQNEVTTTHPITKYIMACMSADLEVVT

| Int.* (Ratio) (Interference) [1] | Inh. (%) (Inhibition) (MBHA with DNA substrate) | Inh. (%) (Inhibition) (MBHA with a DNA substrate) | Int.* (Ratio) (Interference) [2] | SMILES |
| --- | --- | --- | --- | --- |
| 1.12 | 2.2 |  |  | COc1ccc(OC)c(-c2cc(=O)c3c(OC)c(OC)c(OC)c(OC)c3o2)c1 [Compound 71300] |
|  |  | 11.6 | 1.01 | CN(C)CC1CCC/C(=C\c2ccc(OC(=O)/C=C/c3ccccc3)cc2)C1=O.Cl (stereo not drawn) [Compound 697443] |
|  |  | 8.9 | 1.18 | Cc1c2ccncc2c(C)c2c1sc1ccccc12 [Compound 119686] |
|  |  | 7.4 | 1.05 | CCN(CC)CCOc1ccc(C(O)(Cc2ccc(OC)cc2)c2ccccc2)cc1 (stereo not drawn) [Compound 19857] |
| 0.87 | 36.6 |  |  | CC(=O)OCc1c2ccccc2c(C)c2c1cc(F)c1ccccc12 [Compound 623135] |
| 0.90 | 15.0 |  |  | COc1cc(/C=C/C(=O)CC(=O)/C=C/c2ccc(O)c(OC)c2)ccc1O [Compound 32982] |
|  |  | −28.8 | 1.17 | Cc1ccc(CC2(OCCN(C)C)CCC(C(C)(C)C)CC2)cc1.O=C(O)/C=C/C(=O)O (stereo not drawn) [Compound 670229] |
|  |  | −29.4 | 1.05 | Cc1cc(O)c2c(c1)C(=O)c1cc(O)cc(O)c1C2=O [Compound 408120] |
| 0.93 | 15.8 |  |  | O=c1cccccc1O [Compound 89303] |
|  |  | −4.6 | 1.02 | Cc1nn(-c2ccccc2)c2c1CC(=O)Nc1ccccc1-2 [Compound 662553] |
|  |  | −6.2 | 0.88 | COc1cc(O)c(Cc2ccccc2O)c(O)c1C(=O)CCc1ccccc1 [Compound 241906] |
|  |  | 10.6 | 0.88 | CCN(CC)CCCC(C)Nc1ccnc(/C=C/c2ccc(Cl)cc2)c1 (stereo not drawn) [Compound 157389] |
| 0.88 | 17.5 |  |  | Cc1cc(=O)[nH]c(NN2C(Cl)C(=O)C2c2cccc([N+](=O)[O-])c2)n1 (stereo not drawn) [Compound 653010] |
|  |  | 9.9 | 0.91 | Cn1cnc([N+](=O)[O-])c1Sc1nnc(-c2cccnc2)n1C [Compound 631160] |
|  |  | 10.7 | 0.27 | COc1ccc2c(NCCCCCCNc3c4ccccc4nc4cc(OC)ccc34)c3ccccc3nc2c1 [Compound 260610] |
| 1.02 | −2.2 |  |  | CN(C)c1ccc(/C=C2\CCc3ccccc3C2=O)cc1Br [Compound 643162] |
|  |  | −45.1 | 1.17 | CCOC(=O)c1ccc(N=Cc2ccc(N(CCC#N)CCC#N)cc2)cc1 [Compound 620279] |
| 0.85 | 30.3 |  |  | CCN(CC)CCNc1ccc(C)c2sc3ccccc3c(=O)c12.Cl [Compound 14574] |
|  |  | −5.4 | 0.86 | COc1ccc(N=C2C(=Nc3ccc(OC)cc3)N(c3ccc(N(C)C)cc3)C(=S)N2c2ccc(OC)cc2)cc1 [Compound 671394] |
| 0.75 | 53.1 |  |  | CCN(CC)CCNc1ccc(CO)c2sc3ccccc3c(=O)c12 [Compound 142982] |
|  |  | −3.5 | 0.97 | COC(=O)c1ccccc1OCc1cc(=O)oc2ccc(C)cc12 [Compound 623637] |
| 0.90 | 13.5 |  |  | CC/C(=C(\c1ccccc1)c1ccc(OCCN(C)C)cc1)c1ccccc1.O=C(O)CC(O)(CC(=O)O)C(=O)O [Compound 180973] |
|  |  | −27.2 | 0.86 | O=C([O-])c1cc(I)cc(I)c1O.O=C([O-])c1cc(I)cc(I)c1O.[Mn+2] [Compound 619907] |
|  |  | 10.4 | 0.94 | Cc1ccc(NC(=O)c2cccc([N+](=O)[O-])c2O)c([N+](=O)[O-])c1 [Compound 82025] |
| 0.97 | 1.2 |  |  | COc1cc(OC)c(OC)cc1/C=C/c1ccnc2ccccc12 [Compound 80756] |
| 0.91 | −13.1 |  |  | CN(Cc1cnc2nc(N)nc(N)c2n1)c1ccc(C(=O)NC(CCC(=O)O)C(=O)O)c2ccccc12 (stereo not drawn) [Compound 174121] |

More lines, now with the values behind:

| SMILES | Int.* (Ratio) (Interference) [1] | Inh. (%) (Inhibition) (MBHA with DNA substrate) | Inh. (%) (Inhibition) (MBHA with a DNA substrate) | Int.* (Ratio) (Interference) [2] |
| --- | --- | --- | --- | --- |
| CO[C@@H]1[C@@H](OC(=O)c2ccc(C)[nH]2)[C@@H](O)[C@H](Oc2ccc3c(O)c(NC(=O)c4c[nH]c(C(=O)Nc5c(O)c6ccc(O[C@@H]7OC(C)(C)[C@H](OC)[C@@H](OC(=O)c8ccc(C)[nH]8)[C@H]7O)c(C)c6oc5=O)c4C)c(=O)oc3c2C)OC1(C)C [Compound 107412] | 0.83 | 0.0 |  |  |
| CC(=O)O[C@H]1C[C@H](O[C@H]2[C@@H](O)C[C@H](O[C@H]3[C@@H](O)C[C@H](O[C@H]4CC[C@@]5(C)[C@H](CC[C@@H]6[C@@H]5CC[C@]5(C)[C@@H](C7=CC(=O)OC7)CC[C@]65O)C4)O[C@@H]3C)O[C@@H]2C)OC(C)[C@H]1O[C@@H]1O[C@H](CO)[C@@H](O)[C@H](O)[C@H]1O (stereo partly drawn) [Compound 7532] |  |  | −3.4 | 0.89 |
| CS(=O)(=O)c1nc(N)nc2nc[nH]c12 [Compound 63446] | 0.76 | 4.3 |  |  |
| C[C@H]1CCC/C=C/[C@@H]2C[C@H](O)C[C@H]2[C@H](O)/C=C/C(=O)O1 [Compound 89671] |  |  | −5.9 | 1.04 |
| O=C1N[C@@H]2C(=C[C@H](O)[C@@H](O)[C@H]2O)c2cc3c(c(O)c21)OCO3 [Compound 266535] |  |  | −5.9 | 0.87 |
| CC[C@H](C)[C@@H]1NC(=O)[C@@H](NC(=O)c2c3nc4c(C(=O)N[C@@H]5C(=O)N[C@@H](C(C)C)C(=O)N6CCC[C@H]6C(=O)N(C)CC(=O)N(C)[C@@H](C(C)C)C(=O)O[C@@H]5C)ccc(C)c4oc-3c(C)c(=O)c2N)[C@@H](C)OC(=O)[C@H](C(C)C)N(C)C(=O)CN(C)C(=O)[C@@H]2CCCN2C1=O [Compound 18268] (I: TIP[Sar][NMeV] / II: TVP[Sar][NMeV]; ester I:1-I:C, II:1-II:C; linker I:N-II:N via Actinocin(1to9)) | 0.61 | 27.6 |  |  |
| CO[C@H]1Nc2c(ccc(C)c2O)C(=O)N2C=C(/C=C/C(N)=O)C[C@@H]12 [Compound 106408] | 0.94 | 22.7 |  |  |
| O=[N+]([O-])c1cc(-c2nc(=S)[nH][nH]2)ccc1O [Compound 635563] |  |  | −6.8 | 0.92 |
| CC1=C(N2CC2)C(=O)C(CO)=C(N2CC2)C1=O [Compound 697726] |  |  | −5.6 | 0.90 |
| CCCCCCCCCCCCCCCCCCOP(=O)([O-])OCC[N+](C)(C)C [Compound 282880] | 0.85 | 5.8 |  |  |
| Cc1[nH]c(=O)[nH]c(=O)c1/C=C/C(=O)NC(CO)CC(C)C (stereo not drawn) [Compound 224117] | 1.01 | −2.8 |  |  |
| CC(C)(C)CC(C)(C)NCC(O)COc1ccc(C(C)(C)c2ccc(OCC(O)CNC(C)(C)CC(C)(C)C)cc2)cc1.Cl (stereo not drawn) [Compound 145366] | 0.53 | 33.1 |  |  |
| CC12C(=O)OC(=O)C1(C)C1CCC2O1 (stereo not drawn) [Compound 61805] | 0.95 | −0.5 |  |  |
| COc1cc2c(cc1O)N=CC1CCC(O)N1C2=O (stereo not drawn) [Compound 285223] |  |  | −26.2 | 1.01 |
| CC[C@](C)(O)C(=O)O[C@H]1C(=O)O[C@@H]2C[C@H]3C(C)=C[C@H](O)[C@@H](O)[C@]3(C)[C@H]3[C@@]4(O)OC[C@]32[C@@H]1[C@@H](C)[C@H]4O [Compound 14975] |  |  | −20.8 | 1.03 |
| COC1CC(O[C@H]2CC[C@]3(C=O)[C@H]4CC[C@]5(C)[C@@H](C6=CC(=O)OC6)CC[C@]5(O)[C@@H]4CC[C@]3(O)C2)OC(C)C1O (stereo partly drawn) [Compound 7522] |  |  | −24.0 | 0.97 |
| Nc1cc2[nH]cnc2c(=O)[nH]1 [Compound 261726] |  |  | 9.6 | 0.96 |
| CCOC(OCC)C(CC)[Se]c1ccccc1[N+](=O)[O-] (stereo not drawn) [Compound 646200] |  |  | −3.7 | 1.14 |
| CC[C@@]1(O)C[C@H](OC2CC(N(C)C)C(O)C(C)O2)c2c(O)c3c(c(O)c2[C@H]1OC1CC(N(C)C)C(O)C(C)O1)C(=O)c1cccc(O)c1C3=O (stereo partly drawn) [Compound 136044] | 0.33 | 47.9 |  |  |
| Cc1ccc(N=Nc2c(O)ccc3ccccc23)cc1 [Compound 106296] |  |  | −5.2 | 1.23 |
| C=Cc1cc(OC)c2c(c1)c(=O)oc1c2cc(OC)c2c(O)ccc(C3OC(C)C(O)C(C)(O)C3O)c21 (stereo not drawn) [Compound 354844] | 0.93 | 32.6 |  |  |
| C=C(C)C(=O)OC1CCC2(C)C(CCC3C2CCC2(C)C(c4ccc(=O)oc4)CC4OC432)C1 (stereo not drawn) [Compound 267712] |  |  | −22.8 | 1.09 |
